Data published in patent publication US20260355196A1, “INHIBITORS AND DEGRADERS OF PIP4K PROTEIN” (Larkspur Biosciences, Inc., priority 2023, published 2026).

target: T1, PIP4K2C (Homo sapiens, UniProt Q8TBX8); assay: HiBiT PIP4K2C degradation assay in MOLT-4 cells (endogenous PIP4K2C C-terminally tagged with HiBiT); type: cell-based; design: untagged in primary human PBMCs and monocyte-derived dendritic cells; details: 6 hours of incubation time, rather than 24 hours; MOLT-4, top concentration 10 micromolar; read-out: HiBIT-degradation MOLT4 PIP4k2C DC50 (6 hours, marked *)
T1 sequence (Q8TBX8 1-421): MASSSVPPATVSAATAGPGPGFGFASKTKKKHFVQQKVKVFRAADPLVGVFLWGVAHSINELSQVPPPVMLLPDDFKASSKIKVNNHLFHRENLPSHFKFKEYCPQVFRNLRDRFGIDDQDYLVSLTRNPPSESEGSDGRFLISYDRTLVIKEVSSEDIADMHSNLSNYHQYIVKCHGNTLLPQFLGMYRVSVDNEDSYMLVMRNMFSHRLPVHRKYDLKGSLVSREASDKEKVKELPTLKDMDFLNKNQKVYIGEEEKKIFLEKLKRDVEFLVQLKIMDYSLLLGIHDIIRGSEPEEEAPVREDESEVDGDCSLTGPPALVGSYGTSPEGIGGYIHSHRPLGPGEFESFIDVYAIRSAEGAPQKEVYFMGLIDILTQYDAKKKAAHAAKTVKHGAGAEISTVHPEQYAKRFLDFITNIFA
Procedure, shortened: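 DC50 derived by Hill fit of luminescence from Nano-Glo HiBiT lytic detection. Cells were HiBiT knock-in MOLT-4 (C-terminal tag on endogenous PIP4K2C), exposed 6 h or 24 h at 37 C to compound, top concentration 10 micromolar, 3-fold steps, 10 points, duplicates.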

SMILES | DC50 [nM]
Cn1nc(C2CCC(=O)NC2=O)c2ccc(N3CCN(CCN4CCC(C(=O)N[C@H]5CC[C@H](Nc6ncc(F)c(-c7cccc(-n8ccccc8=O)c7)n6)CC5)CC4)CC3)cc21 (stereo partly drawn) [Compound 506, trans-1-(2-(4-(3-(2,6-dioxopiperidin-3-yl)-1-methyl-1H-indazol-6-yl)piperazin-1-yl)ethyl)-N-((1r,4r)-4-((5-fluoro-4-(3-(2-oxopyridin-1(2H)-yl)phenyl)pyrimidin-2-yl)amino)cyclohexyl)piperidine-4-carboxamide] | < 500
Cn1nc(C2CCC(=O)NC2=O)c2ccc(C3CCN([C@H]4CC[C@H](CC(=O)N[C@H]5CC[C@H](Nc6ncc(F)c(-c7cccc(-n8ccccc8=O)c7)n6)CC5)CC4)CC3)cc21 (stereo partly drawn) [Compound 507, trans-2-((1r,4R)-4-(4-(3-(2,6-dioxopiperidin-3-yl)-1-methyl-1H-indazol-6-yl)piperidin-1-yl)cyclohexyl)-N-((1r,4R)-4-((5-fluoro-4-(3-(2-oxopyridin-1(2H)-yl)phenyl)pyrimidin-2-yl)amino)cyclohexyl)acetamide] | < 500
O=C1CCC(Nc2ccc(C3CCN([C@H]4CC[C@H](NC(=O)[C@H]5CC[C@H](Nc6ncc(F)c(-c7cccc(C(=O)N8CC[C@H](O)C8)c7)n6)CC5)CC4)CC3)c(F)c2)C(=O)N1 (stereo partly drawn) [Compound 510, trans-N-(trans-4-(4-(4-((2,6-dioxopiperidin-3-yl)amino)-2-fluorophenyl)piperidin-1-yl)cyclohexyl)-4-((5-fluoro-4-(3-((S)-3-hydroxypyrrolidine-1-carbonyl)phenyl)pyrimidin-2-yl)amino)cyclohexane-1-carboxamide] | < 500
O=C1CCC(Nc2ccc(C3CCN([C@H]4CC[C@H](C(=O)N[C@H]5CC[C@H](Nc6ncc(F)c(-c7cccc(C(=O)N8CC[C@H](O)C8)c7)n6)CC5)CC4)CC3)c(F)c2)C(=O)N1 (stereo partly drawn) [Compound 511, trans-4-(4-(4-((2,6-dioxopiperidin-3-yl)amino)-2-fluorophenyl)piperidin-1-yl)-N-(trans-4-((5-fluoro-4-(3-((S)-3-hydroxypyrrolidine-1-carbonyl)phenyl)pyrimidin-2-yl)amino)cyclohexyl)cyclohexane-1-carboxamide] | < 500
Cn1nc(N2CCC(=O)NC2=O)c2cc(F)c(C3CCN([C@H]4CC[C@H](C(=O)N[C@H]5CC[C@H](Nc6ncc(F)c(-c7cccc(-n8ccccc8=O)c7)n6)CC5)CC4)CC3)cc21 [Compound 512, trans-4-(4-(3-(2,4-dioxotetrahydropyrimidin-1(2H)-yl)-5-fluoro-1-methyl-1H-indazol-6-yl)piperidin-1-yl)-N-(trans-4-((5-fluoro-4-(3-(2-oxopyridin-1(2H)-yl)phenyl)pyrimidin-2-yl)amino)cyclohexyl)cyclohexane-1-carboxamide] | < 500
O=C1CCC(Nc2ccc(N3CCN(CC4CCN(C(=O)[C@H]5CC[C@H](Nc6ncc(F)c(-c7cccc(N8CCCCC8)c7)n6)CC5)CC4)CC3)c(F)c2)C(=O)N1 (stereo partly drawn) [Compound 513, trans-3-((3-fluoro-4-(4-((1-(4-((5-fluoro-4-(3-(piperidin-1-yl)phenyl)pyrimidin-2-yl)amino)cyclohexane-1-carbonyl)piperidin-4-yl)methyl)piperazin-1-yl)phenyl)amino)piperidine-2,6-dione] | < 500
O=C1CC[C@H](Nc2ccc(C3CCN(CC4(O)CCN(C(=O)[C@H]5CC[C@H](Nc6ncc(F)c(-c7cccc(N8CCCCC8)c7)n6)CC5)CC4)CC3)c(F)c2)C(=O)N1 [Compound 514, trans-3-((3-fluoro-4-(1-((1-(4-((5-fluoro-4-(3-(piperidin-1-yl)phenyl)pyrimidin-2-yl)amino)cyclohexane-1-carbonyl)-4-hydroxypiperidin-4-yl)methyl)piperidin-4-yl)phenyl)amino)piperidine-2,6-dione] | < 500
O=C1CCC(Nc2ccc(C3CCN(CC4(O)CCN(C(=O)[C@H]5CC[C@H](Nc6ncc(F)c(-c7cccc(C8CC8)c7)n6)CC5)CC4)CC3)c(F)c2)C(=O)N1 (stereo partly drawn) [Compound 518, trans-3-((4-(1-((1-(4-((4-(3-cyclopropylphenyl)-5-fluoropyrimidin-2-yl)amino)cyclohexane-1-carbonyl)-4-hydroxypiperidin-4-yl)methyl)piperidin-4-yl)-3-fluorophenyl)amino)piperidine-2,6-dione] | < 500

Further lines, results first:

DC50 [nM] | SMILES
< 500 | O=C1CCC(Nc2ccc(N3CCC(N4CCC(C(=O)N[C@H]5CC[C@H](Nc6ncc(F)c(-c7cccc(C8CC8)c7)n6)CC5)CC4)CC3)c(F)c2)C(=O)N1 (stereo partly drawn) [Compound 504, trans-N-(4-((4-(3-cyclopropylphenyl)-5-fluoropyrimidin-2-yl)amino)cyclohexyl)-1′-(4-((2,6-dioxopiperidin-3-yl)amino)-2-fluorophenyl)-[1,4′-bipiperidine]-4-carboxamide]
< 500 | O=C1CCC(Nc2ccc(N3CCN([C@H]4CC[C@H](NC(=O)[C@H]5CC[C@H](Nc6ncc(F)c(-c7cccc(N8CCOCC8=O)c7)n6)CC5)CC4)CC3)c(F)c2)C(=O)N1 (stereo partly drawn) [Compound 508, trans-N-(trans-4-(4-(4-((2,6-dioxopiperidin-3-yl)amino)-2-fluorophenyl)piperazin-1-yl)cyclohexyl)-4-((5-fluoro-4-(3-(3-oxomorpholino)phenyl)pyrimidin-2-yl)amino)cyclohexane-1-carboxamide]
< 500 | O=C1CCC(Nc2ccc(N3CCN([C@H]4CC[C@H](NC(=O)[C@H]5CC[C@H](Nc6ncc(F)c(-c7cccc(C(=O)N8CC[C@H](O)C8)c7)n6)CC5)CC4)CC3)c(F)c2)C(=O)N1 (stereo partly drawn) [Compound 509, trans-N-(trans-4-(4-(4-((2,6-dioxopiperidin-3-yl)amino)-2-fluorophenyl)piperazin-1-yl)cyclohexyl)-4-((5-fluoro-4-(3-((S)-3-hydroxypyrrolidine-1-carbonyl)phenyl)pyrimidin-2-yl)amino)cyclohexane-1-carboxamide]
< 500 | O=C1CCC(Nc2ccc(C3CCN([C@H]4CC[C@H](NC(=O)[C@H]5CC[C@H](Nc6ncc(F)c(-c7cccc(N8CCCCC8)c7)n6)CC5)CC4)CC3)c(F)c2)C(=O)N1 (stereo partly drawn) [Compound 515, trans-N-(trans-4-(4-(4-((2,6-dioxopiperidin-3-yl)amino)-2-fluorophenyl)piperidin-1-yl)cyclohexyl)-4-((5-fluoro-4-(3-(piperidin-1-yl)phenyl)pyrimidin-2-yl)amino)cyclohexane-1-carboxamide]
< 500 | O=C1CCC(Nc2ccc(N3CCC(N4CCC(C(=O)N[C@H]5CC[C@H](Nc6ncc(F)c(-c7cccc(N8CCCCC8)c7)n6)CC5)CC4)CC3)c(F)c2)C(=O)N1 (stereo partly drawn) [Compound 516, trans-1′-(4-((2,6-dioxopiperidin-3-yl)amino)-2-fluorophenyl)-N-(4-((5-fluoro-4-(3-(piperidin-1-yl)phenyl)pyrimidin-2-yl)amino)cyclohexyl)-[1,4′-bipiperidine]-4-carboxamide]
< 500 | O=C1CC[C@H](Nc2ccc(N3CCN([C@H]4CC[C@H](C(=O)N[C@H]5CC[C@H](Nc6ncc(F)c(-c7cccc(-c8ccc[nH]c8=O)c7)n6)CC5)CC4)CC3)c(F)c2)C(=O)N1 [Compound 517, trans-4-(4-(4-(((S)-2,6-dioxopiperidin-3-yl)amino)-2-fluorophenyl)piperazin-1-yl)-N-((trans)-4-((5-fluoro-4-(3-(2-oxo-1,2-dihydropyridin-3-yl)phenyl)pyrimidin-2-yl)amino)cyclohexyl)cyclohexane-1-carboxamide]
